# Patent publication US10844032B2, “Substituted benzofuran, benzothiophene and indole Mcl-1 inhibitors” (Vanderbilt University, priority 2012, dated 2020)
# Target: recombinant Mcl-1 (residues 172-327) (Homo sapiens (Human), UniProt Q07820)
# Test: Bak peptide fluorescence polarization anisotropy competition assay, Mcl-1
# Assay type: binding
# Conditions: Table 2, Ki range; FITC-Bak peptide 10 nM, Mcl-1 14 nM; read-out: Ki for inhibition of Mcl-1
# Chain of recombinant Mcl-1 (residues 172-327) (Q07820 172-327): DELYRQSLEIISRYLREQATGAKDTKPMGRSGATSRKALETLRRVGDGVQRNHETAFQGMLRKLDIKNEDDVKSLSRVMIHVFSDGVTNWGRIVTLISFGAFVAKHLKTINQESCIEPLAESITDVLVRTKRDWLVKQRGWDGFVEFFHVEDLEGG
row,SMILES,Ki
1,"Cc1cc(OCCCc2c(C(=O)NS(=O)(=O)c3ccccc3)[nH]c3c(-c4cnn(C)c4)cccc23)cc(C)c1Cl [Example 123, 3-(3-(4-chloro-3,5-dimethylphenoxy)propyl)-7-(1-methyl-1H-pyrazol-4-yl)-N-(phenylsulfonyl)-1H-indole-2-carboxamide]",≤ 100 nM
2,"Cc1cc(OCCCc2c(C(=O)NS(=O)(=O)c3ccccc3)[nH]c3c(-c4ccsc4C)cccc23)cc(C)c1Cl [Example 98, 3-(3-(4-chloro-3,5-dimethylphenoxy)propyl)-7-(2-methylthiophen-3-yl)-N-(phenylsulfonyl)-1H-indole-2-carboxamide]",≤ 100 nM
3,"Cc1cc(OCCCc2c(C(=O)NS(=O)(=O)CCNC(=O)[C@@H]3Cc4ccccc4N3)[nH]c3cc(Cl)ccc23)cc(C)c1Cl [Example 237, (S)-6-chloro-3-(3-(4-chloro-3,5-dimethylphenoxy)propyl)-N-((2-(indoline-2-carboxamido)ethyl)sulfonyl)-1H-indole-2-carboxamide]",≤ 100 nM
4,"Cc1cc(OCCCc2c(C(=O)NS(=O)(=O)c3ccccc3)[nH]c3c(-c4ccnc5ccccc45)cccc23)cc(C)c1Cl [Example 92, 3-(3-(4-chloro-3,5-dimethylphenoxy)propyl)-N-(phenylsulfonyl)-7-(quinolin-4-yl)-1H-indole-2-carboxamide]",≤ 100 nM

# Results, then the compound that gave them:
row,Ki,SMILES
1,≤ 100 nM,"Cc1cc(OCCCc2c(C(=O)NS(=O)(=O)c3ccccc3)[nH]c3c(-c4cnccc4C(F)(F)F)cccc23)cc(C)c1Cl [Example 103, 3-(3-(4-chloro-3,5-dimethylphenoxy)propyl)-N-(phenylsulfonyl)-7-(4-(trifluoromethyl)pyridin-3-yl)-1H-indole-2-carboxamide]"
2,≤ 100 nM,"Cc1cc(OCCCc2c(C(=O)NS(C)(=O)=O)[nH]c3cccc(Cl)c23)cc(C)c1Cl [Example 51, 4-chloro-3-(3-(4-chloro-3,5-dimethylphenoxy)propyl)-N-(methylsulfonyl)-1H-indole-2-carboxamide]"
3,≤ 100 nM,"Cc1cc(OCCCc2c(C(=O)NS(=O)(=O)CCNC(=O)c3cccn3C)[nH]c3cc(Cl)ccc23)cc(C)c1Cl [Example 233, 6-chloro-3-(3-(4-chloro-3,5-dimethylphenoxy)propyl)-N-((2-(1-methyl-1H-pyrrole-2-carboxamido)ethyl)sulfonyl)-1H-indole-2-carboxamide]"
4,≤ 100 nM,"Cc1cc(OCCCc2c(C(=O)NS(=O)(=O)c3ccccc3)[nH]c3cc(Cl)ccc23)cc(C)c1Cl [Example 216, 6-chloro-3-(3-(4-chloro-3,5-dimethylphenoxy)propyl)-N-(phenylsulfonyl)-1H-indole-2-carboxamide]"

# Same assay, conditions: read-out: Ki for inhibition of Mcl-1
row,SMILES,Ki
1,"Cc1cc(OCCCc2c(C(=O)NS(=O)(=O)CCNC(=O)/C=C/c3ccccc3)[nH]c3ccccc23)cc(C)c1Cl [Example 163, (E)-3-(3-(4-chloro-3,5-dimethylphenoxy)propyl)-N-((2-cinnamamidoethyl)sulfonyl)-1H-indole-2-carboxamide]",101 to 299 nM
2,"Cc1cc(OCCCc2c(C(=O)NS(=O)(=O)CCNC(=O)c3cc(C)n(C4CC4)c3C)[nH]c3ccccc23)cc(C)c1Cl [Example 193, 3-(3-(4-chloro-3,5-dimethylphenoxy)propyl)-N-((2-(1-cyclopropyl-2,5-dimethyl-1H-pyrrole-3-carboxamido)ethyl)sulfonyl)-1H-indole-2-carboxamide]",101 to 299 nM
3,"Cc1cc(OCCCc2c(C(=O)NS(C)(=O)=O)[nH]c3ccc(Cl)cc23)cc(C)c1Cl [Example 110, 5-chloro-3-(3-(4-chloro-3,5-dimethylphenoxy)propyl)-N-(methylsulfonyl)-1H-indole-2-carboxamide]",501 to 999 nM
4,"Cc1ccc(OCCCc2c(C(=O)NS(C)(=O)=O)[nH]c3ccccc23)cc1 [Example 33, N-(methylsulfonyl)-3-(3-(p-tolyloxy)propyl)-1H-indole-2-carboxamide]",10000 to 50000 nM
5,"CCOc1ccc(Oc2ccc(S(=O)(=O)NC(=O)c3[nH]c4ccccc4c3CCCOc3cc(C)c(Cl)c(C)c3)cc2)cc1 [Example 143, 3-(3-(4-chloro-3,5-dimethylphenoxy)propyl)-N-((4-(4-ethoxyphenoxy)phenyl)sulfonyl)-1H-indole-2-carboxamide]",301 to 500 nM
6,"CS(=O)(=O)NC(=O)c1sc2ccccc2c1CCCOc1cccc2ccccc12 [Example 61, N-(methylsulfonyl)-3-(3-(naphthalen-1-yloxy)propyl)benzo[b]thiophene-2-carboxamide]",1000 to 9990 nM
7,"COc1cccc(Cn2cccc2C(=O)NCCS(=O)(=O)NC(=O)c2[nH]c3cc(Cl)ccc3c2CCCOc2cc(C)c(Cl)c(C)c2)c1 [Example 247, 6-chloro-3-(3-(4-chloro-3,5-dimethylphenoxy)propyl)-N-((2-(1-(3-methoxybenzyl)-1H-pyrrole-2-carboxamido)ethyl)sulfonyl)-1H-indole-2-carboxamide]",101 to 299 nM
8,"CS(=O)(=O)NC(=O)c1[nH]c2ccccc2c1CCCOc1ccc(Cl)c2ccccc12 [Example 39, 3-(3-((4-chloronaphthalen-1-yl)oxy)propyl)-N-(methylsulfonyl)-1H-indole-2-carboxamide]",501 to 999 nM
9,"Cc1cc(OCCCc2c(C(=O)NS(=O)(=O)c3cccnc3)[nH]c3ccccc23)cc(C)c1Cl [Example 133, 3-(3-(4-chloro-3,5-dimethylphenoxy)propyl)-N-(pyridin-3-ylsulfonyl)-1H-indole-2-carboxamide]",301 to 500 nM
10,"Cc1cc(OCCCc2c(C(=O)NS(=O)(=O)CCNC(=O)c3ccccc3)[nH]c3ccccc23)cc(C)c1Cl [Example 161, N-((2-benzamidoethyl)sulfonyl)-3-(3-(4-chloro-3,5-dimethylphenoxy)propyl)-1H-indole-2-carboxamide]",301 to 500 nM
11,"CS(=O)(=O)NC(=O)c1[nH]c2cc(Cl)ccc2c1CCCOc1ccc(Cl)c(Cl)c1 [Example 105, 6-chloro-3-(3-(3,4-dichlorophenoxy)propyl)-N-(methylsulfonyl)-1H-indole-2-carboxamide]",1000 to 9990 nM
12,"Cc1cc(OCCCc2c(C(=O)NS(=O)(=O)CCNC(=O)CC34CC5CC(CC(C5)C3)C4)[nH]c3ccccc23)cc(C)c1Cl [Example 179, N-((2-(2-((1s,3s)-adamantan-1-yl)acetamido)ethyl)sulfonyl)-3-(3-(4-chloro-3,5-dimethylphenoxy)propyl)-1H-indole-2-carboxamide]",101 to 299 nM
13,"Cc1cc(OCCCc2c(C(=O)NS(=O)(=O)CCNC(=O)c3cccc(Oc4ccccc4)c3)[nH]c3cc(Cl)ccc23)cc(C)c1Cl [Example 231, 6-chloro-3-(3-(4-chloro-3,5-dimethylphenoxy)propyl)-N-((2-(3-phenoxybenzamido)ethyl)sulfonyl)-1H-indole-2-carboxamide]",101 to 299 nM

# Next, values leading:
row,Ki,SMILES
1,301 to 500 nM,"CS(=O)(=O)NC(=O)c1cc2ccccc2n1CCCOc1cccc2ccccc12 [Example 14, N-(methylsulfonyl)-1-(3-(naphthalen-1-yloxy)propyl)-1H-indole-2-carboxamide]"
2,301 to 500 nM,"Cc1cc(OCCCc2c(C(=O)NS(=O)(=O)CCCNC(=O)CCc3cc(-c4ccccc4)n[nH]3)[nH]c3cc(Cl)ccc23)cc(C)c1Cl [Example 257, 6-chloro-3-(3-(4-chloro-3,5-dimethylphenoxy)propyl)-N-((3-(3-(3-phenyl-1H-pyrazol-5-yl)propanamido)propyl)sulfonyl)-1H-indole-2-carboxamide]"
3,101 to 299 nM,"Cc1cccc(S(=O)(=O)NC(=O)c2[nH]c3cc(Cl)ccc3c2CCCOc2cc(C)c(Cl)c(C)c2)c1 [Example 217, 6-chloro-3-(3-(4-chloro-3,5-dimethylphenoxy)propyl)-N-(m-tolylsulfonyl)-1H-indole-2-carboxamide]"
4,101 to 299 nM,"CC(=O)N1CCN(c2ccc(OCc3nn(C)c(C)c3-c3cccc4c(CCCOc5cc(C)c(Cl)c(C)c5)c(C(=O)NS(C)(=O)=O)n(Cc5cccnc5)c34)cc2)CC1 [Example 125, 7-(3-((4-(4-acetylpiperazin-1-yl)phenoxy)methyl)-1,5-dimethyl-1H-pyrazol-4-yl)-3-(3-(4-chloro-3,5-dimethylphenoxy)propyl)-N-(methylsulfonyl)-1-(pyridin-3-ylmethyl)-1H-indole-2-carboxamide]"
5,101 to 299 nM,"Cc1cc(OCCCc2c(C(=O)NS(=O)(=O)C3CC3)[nH]c3cc(Cl)ccc23)cc(C)c1Cl [Example 65, 6-chloro-3-(3-(4-chloro-3,5-dimethylphenoxy)propyl)-N-(cyclopropylsulfonyl)-1H-indole-2-carboxamide]"
6,101 to 299 nM,"Cc1cc(OCCCc2c(C(=O)NS(=O)(=O)CCNC(=O)C(F)(F)F)[nH]c3cc(Cl)ccc23)cc(C)c1Cl [Example 254, 6-chloro-3-(3-(4-chloro-3,5-dimethylphenoxy)propyl)-N-((2-(2,2,2-trifluoroacetamido)ethyl)sulfonyl)-1H-indole-2-carboxamide]"
7,1000 to 9990 nM,"Cc1cc(OCCCc2c(C(=O)NS(=O)(=O)CCNC(=O)c3c[nH]cn3)[nH]c3ccccc23)cc(C)c1Cl [Example 186, N-((2-(1H-imidazole-4-carboxamido)ethyl)sulfonyl)-3-(3-(4-chloro-3,5-dimethylphenoxy)propyl)-1H-indole-2-carboxamide]"
8,501 to 999 nM,"Cc1ccc2c(CCCOc3cccc4ccccc34)c(C(=O)O)sc2c1 [Example 9, 6-methyl-3-(3-(naphthalen-1-yloxy)propyl)benzo[b]thiophene-2-carboxylic acid]"
9,101 to 299 nM,"Cc1cc(OCCCc2c(C(=O)NS(=O)(=O)c3ccccc3)[nH]c3c(-c4ccco4)cccc23)cc(C)c1Cl [Example 86, 3-(3-(4-chloro-3,5-dimethylphenoxy)propyl)-7-(furan-2-yl)-N-(phenylsulfonyl)-1H-indole-2-carboxamide]"
10,101 to 299 nM,"COc1ccccc1-c1cccc2c(CCCOc3cc(C)c(Cl)c(C)c3)c(C(=O)NS(C)(=O)=O)[nH]c12 [Example 85, 3-(3-(4-chloro-3,5-dimethylphenoxy)propyl)-7-(2-methoxyphenyl)-N-(methylsulfonyl)-1H-indole-2-carboxamide]"
11,501 to 999 nM,"O=C(NS(=O)(=O)C(F)(F)F)c1cc2ccccc2n1CCCOc1cccc2ccccc12 [Example 15, 1-(3-(naphthalen-1-yloxy)propyl)-N-((trifluoromethyl)sulfonyl)-1H-indole-2-carboxamide]"
